From patent US11534478B2, “Compositions and methods for treating cancer” (Biokine Therapeutics Ltd., priority 2015, dated 2022)
Where a SMILES comes first, the peptide text is derived from it. Bridges are numbered along the chain shown (N, C = ends). [ ]: non-standard residue; d: D form. The star is where a group is joined. 2Nal = N[C@@H](Cc1ccc2ccccc2c1)C(=O)O; Benzoyl(4-F) = O=C(c1ccc(F)cc1)*; Cit = NC(=O)NCCC[C@H](N)C(=O)O

Columns and labels:
[1] = in vivo
KIR2DL3 = KIR2DL3 (Homo sapiens, UniProt P10321+P43628); details: cited from earlier work
ID02 = target: T1, ID02 (Homo sapiens, UniProt Q6ZQW0); details: D isomer; cited from earlier work
T1 sequence (Q6ZQW0 1-407): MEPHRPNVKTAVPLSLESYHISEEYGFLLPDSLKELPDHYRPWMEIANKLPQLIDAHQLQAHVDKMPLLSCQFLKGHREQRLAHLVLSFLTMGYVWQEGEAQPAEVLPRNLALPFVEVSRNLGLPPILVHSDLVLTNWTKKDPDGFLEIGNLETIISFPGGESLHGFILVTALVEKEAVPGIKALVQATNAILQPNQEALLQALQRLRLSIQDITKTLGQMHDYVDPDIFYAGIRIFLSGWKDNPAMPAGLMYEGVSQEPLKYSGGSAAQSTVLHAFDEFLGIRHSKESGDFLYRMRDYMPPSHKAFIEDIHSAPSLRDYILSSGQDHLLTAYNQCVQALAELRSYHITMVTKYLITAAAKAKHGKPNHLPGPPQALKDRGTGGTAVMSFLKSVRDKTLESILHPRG

KIR2DL3, sequence (P43628 22-341): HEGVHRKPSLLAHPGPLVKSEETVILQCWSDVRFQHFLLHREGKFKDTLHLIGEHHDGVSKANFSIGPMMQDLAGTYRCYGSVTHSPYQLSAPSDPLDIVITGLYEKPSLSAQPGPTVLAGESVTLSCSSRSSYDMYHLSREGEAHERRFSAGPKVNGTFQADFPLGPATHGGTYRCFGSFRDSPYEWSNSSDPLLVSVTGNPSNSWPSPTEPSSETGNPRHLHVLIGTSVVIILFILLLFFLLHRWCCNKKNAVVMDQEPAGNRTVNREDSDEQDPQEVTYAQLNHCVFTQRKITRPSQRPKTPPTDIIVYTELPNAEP
KIR2DL3, sequence (P10321 25-366): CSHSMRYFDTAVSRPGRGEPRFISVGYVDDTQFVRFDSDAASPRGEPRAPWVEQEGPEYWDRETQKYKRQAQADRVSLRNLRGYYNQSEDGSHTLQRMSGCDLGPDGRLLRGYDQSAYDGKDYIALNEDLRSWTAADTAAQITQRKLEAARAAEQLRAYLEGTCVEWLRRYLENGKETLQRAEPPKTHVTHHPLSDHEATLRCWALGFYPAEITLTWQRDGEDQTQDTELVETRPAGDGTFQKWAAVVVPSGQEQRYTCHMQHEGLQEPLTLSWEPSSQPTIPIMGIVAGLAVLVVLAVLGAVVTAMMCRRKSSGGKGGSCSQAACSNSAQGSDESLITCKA
KIR2DL3, sequence (P61769 21-119 partner): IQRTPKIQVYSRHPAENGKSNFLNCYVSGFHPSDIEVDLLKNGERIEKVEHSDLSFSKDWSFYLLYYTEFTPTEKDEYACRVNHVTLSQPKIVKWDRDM

N=C(N)NCCC[C@H](NC(=O)[C@@H]1CSSC[C@H](NC(=O)[C@H](Cc2ccc3ccccc3c2)NC(=O)[C@H](CCCNC(=N)N)NC(=O)[C@H](CCCNC(=N)N)NC(=O)c2ccc(F)cc2)C(=O)N[C@@H](Cc2ccc(O)cc2)C(=O)N[C@@H](CCCNC(N)=O)C(=O)N[C@@H](CCCCN)C(=O)N[C@H](CCCCN)C(=O)N2CCC[C@H]2C(=O)N[C@@H](Cc2ccc(O)cc2)C(=O)N[C@@H](CCCNC(=N)N)C(=O)N[C@@H](CCCNC(N)=O)C(=O)N1)C(N)=O [BL-8040, 4F-benzoyl-Arg-Arg-Nal-Cys-Tyr-Cit-Lys-DLys-Pro-Tyr-Arg-Cit-Cys-Arg-NH2] ({Benzoyl(4-F)}-RR[2Nal]CY[Cit]K[dK]PYR[Cit]CR-NH2; disulfide 4-13 (inferred))
safety and tolerability [1]: safe and well tolerated

VAPWNDAL
inhibition of KIR2DL3 (KIR2DL3): inhibitors of KIR2DL3

VAPWSNDYL
inhibition of KIR2DL3 (KIR2DL3): inhibitors of KIR2DL3

Cn1cc(C[C@H](N)C(=O)O)c2ccccc21 [Analog 1-MT, 1-methyl tryptophan]
specificity for ID02 (ID02): more specific for ID02
